Here are results for 2 compounds from US8460669B2, “Compositions and methods for identifying response targets and treating flavivirus infection responses” (Academia Sinica, priority 2005, dated 2013).

One test deals with T1, DC-SIGNR.Fc (Homo sapiens, UniProt Q9H2X3).
T1 construct: The extracellular domains of lectin receptors, TREMs and TLTs were cloned by the reverse-transcriptase polymerase chain reaction (RT-PCR); made in house; host or cells: 293-F (FreeStyle 293) cells
T1 sequence (Q9H2X3 71-399): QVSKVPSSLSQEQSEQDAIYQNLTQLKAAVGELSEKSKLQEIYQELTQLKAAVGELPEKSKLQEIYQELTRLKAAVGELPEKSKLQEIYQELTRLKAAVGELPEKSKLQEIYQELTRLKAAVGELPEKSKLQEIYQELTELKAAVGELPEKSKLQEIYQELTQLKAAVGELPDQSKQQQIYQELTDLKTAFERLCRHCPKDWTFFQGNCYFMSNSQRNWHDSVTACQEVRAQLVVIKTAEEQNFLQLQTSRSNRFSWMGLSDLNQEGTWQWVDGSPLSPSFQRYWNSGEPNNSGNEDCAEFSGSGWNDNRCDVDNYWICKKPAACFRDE
The test can be described thus: Immunosorbent dot binding assay with DC-SIGNR.Fc. Conditions: EDTA 10 mM in TBST.

The target in another test is T2, KCR.Fc (Mus musculus, UniProt P70194).
T2 construct: the extracellular domains of DVLR1/CLEC5A (MDL-1), Dectin-1, KCR, and DC-SIGN (as a positive control) were fused to the Fc portion of human IgG1; made in house; host or cells: 293-F (FreeStyle 293) cells
T2 sequence (P70194 70-548 limits assumed): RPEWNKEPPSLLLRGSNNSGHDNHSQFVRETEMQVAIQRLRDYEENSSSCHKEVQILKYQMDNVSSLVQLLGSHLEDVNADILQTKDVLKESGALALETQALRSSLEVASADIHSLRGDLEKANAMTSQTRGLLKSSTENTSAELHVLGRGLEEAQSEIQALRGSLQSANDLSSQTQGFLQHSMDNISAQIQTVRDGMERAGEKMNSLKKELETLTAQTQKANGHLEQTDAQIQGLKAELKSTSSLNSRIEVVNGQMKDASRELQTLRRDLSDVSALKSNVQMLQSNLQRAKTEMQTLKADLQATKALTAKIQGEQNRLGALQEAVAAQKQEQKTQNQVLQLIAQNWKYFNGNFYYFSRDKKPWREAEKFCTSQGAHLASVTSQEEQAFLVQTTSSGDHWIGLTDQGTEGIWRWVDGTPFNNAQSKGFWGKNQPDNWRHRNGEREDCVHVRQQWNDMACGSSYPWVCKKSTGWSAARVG
Description: Immunosorbent dot binding assay with KCR.Fc. The settings on record: EDTA 10 mM in TBST.

A further test concerns the target T3, TLT-2.Fc (Homo sapiens, UniProt Q5T2D2).
T3 construct: The extracellular domains of lectin receptors, TREMs and TLTs were cloned by the reverse-transcriptase polymerase chain reaction (RT-PCR); made in house; host or cells: 293-F (FreeStyle 293) cells
T3 sequence (Q5T2D2 19-268 limits assumed): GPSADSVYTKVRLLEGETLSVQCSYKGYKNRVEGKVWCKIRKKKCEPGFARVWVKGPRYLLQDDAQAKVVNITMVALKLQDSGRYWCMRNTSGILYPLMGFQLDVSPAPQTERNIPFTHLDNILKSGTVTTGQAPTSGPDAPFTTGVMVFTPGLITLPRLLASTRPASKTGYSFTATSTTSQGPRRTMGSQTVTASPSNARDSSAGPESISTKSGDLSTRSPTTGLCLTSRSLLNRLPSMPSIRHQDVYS
The test can be described thus: Immunosorbent dot binding assay with TLT-2.Fc. The settings on record: EDTA 10 mM in TBST.

For another test, the target named is T4, Dectin-1.Fc (Homo sapiens, UniProt Q9BXN2).
T4 construct: The extracellular domains of lectin receptors, TREMs and TLTs were cloned by the reverse-transcriptase polymerase chain reaction (RT-PCR); made in house; host or cells: 293-F (FreeStyle 293) cells
T4 sequence (Q9BXN2 66-247 limits assumed): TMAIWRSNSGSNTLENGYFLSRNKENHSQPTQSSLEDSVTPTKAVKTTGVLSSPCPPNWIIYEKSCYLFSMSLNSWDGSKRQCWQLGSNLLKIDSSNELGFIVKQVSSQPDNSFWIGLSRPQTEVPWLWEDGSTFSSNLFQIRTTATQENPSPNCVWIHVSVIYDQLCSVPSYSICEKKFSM
Description: Immunosorbent dot binding assay with Dectin-1.Fc. Conditions: competitor 0.1 μg-1000 μg, or EDTA 10 mM in TBST.

The target in another test is T5, DC-SIGN (Homo sapiens, UniProt Q9NNX6).
T5 construct: The extracellular domains of lectin receptors, TREMs and TLTs were cloned by the reverse-transcriptase polymerase chain reaction (RT-PCR); made in house; host or cells: 293-F (FreeStyle 293) cells
T5 sequence (Q9NNX6 59-404 limits assumed): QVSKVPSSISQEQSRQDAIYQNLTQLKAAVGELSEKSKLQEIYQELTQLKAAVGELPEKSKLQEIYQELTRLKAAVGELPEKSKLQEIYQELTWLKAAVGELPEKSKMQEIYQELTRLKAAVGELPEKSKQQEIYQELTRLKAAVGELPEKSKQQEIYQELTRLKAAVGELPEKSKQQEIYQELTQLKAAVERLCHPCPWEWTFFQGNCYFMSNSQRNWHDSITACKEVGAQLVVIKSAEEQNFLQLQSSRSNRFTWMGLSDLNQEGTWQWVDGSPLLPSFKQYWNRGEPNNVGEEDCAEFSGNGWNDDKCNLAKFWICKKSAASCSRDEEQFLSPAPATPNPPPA
Description: Sugar competition EIA, Fc.DC-SIGN binding to GLPS-F3. The settings on record: sugar 1 mg/ml. The protocol:
(§1) The interaction between GLPS-F3 and receptor.Fc was then tested. Unbiotinylated GLPS-F3 was immobilized at 100 ng/well as described above, and 100 μL receptor.Fc fusion protein (1 μg/ml in 2 mM MgCl2/2 mM CaCl2/1% BSA/TBST) was added into each well and incubated for 1 hour at room temperature. After washing with TBST, wells were incubated with peroxidase-conjugated goat anti-human IgG Ab (1:5000 dilution, Jackson ImmunoResearch Laboratories) in blocking buffer at room temperature for 30 min. Wells were incubated with 100 μL TMB substrate for 15 min after TBST washing and read at 450 nm in a Fusion plate reader (Perkin Elmer). The results were normalized with respect to Fc.Dectin-1 binding (Dectin-1 is a known lectin receptor that binds to β-1,3-glucan which is the backbone found in GLPS-F3). FIG. 6B depicts in graphical form the affinity of each receptor for GLPS-F3 relative to Dectin-1. […] There was also weaker but positive GLPS-F3 binding ability (25-50% binding intensity compared to Fc.dectin-1) found in Fc.NKG2D, Fc.MINCLE, Fc.mKCR, DCAL1.Fc, DEC205.Fc, Endo180.Fc and NKp30(NCR3).Fc.
(§2) To understand the interaction of GLPS-F3 with specific innate immunity receptors, the polysaccharides mannan and β-glucan and the monosaccharides D-mannose (Man), D-glucose (Glc), N-acetyl-glucosamine (GlcNAc), D-galactose (Gal), N-acetyl-galactosamine (GalNAc), L-fucose (Fuc) and sialic acid, were used in a competition assay. […] The assays were carried out as in Example 9, with the addition of 1 mg/ml of each polysaccharide or monosaccharide.

Another test addresses T6, MMR.Fc (Homo sapiens, UniProt P22897).
T6 construct: The extracellular domains of lectin receptors, TREMs and TLTs were cloned by the reverse-transcriptase polymerase chain reaction (RT-PCR); made in house; host or cells: 293-F (FreeStyle 293) cells
T6 sequence (P22897 19-1389 limits assumed): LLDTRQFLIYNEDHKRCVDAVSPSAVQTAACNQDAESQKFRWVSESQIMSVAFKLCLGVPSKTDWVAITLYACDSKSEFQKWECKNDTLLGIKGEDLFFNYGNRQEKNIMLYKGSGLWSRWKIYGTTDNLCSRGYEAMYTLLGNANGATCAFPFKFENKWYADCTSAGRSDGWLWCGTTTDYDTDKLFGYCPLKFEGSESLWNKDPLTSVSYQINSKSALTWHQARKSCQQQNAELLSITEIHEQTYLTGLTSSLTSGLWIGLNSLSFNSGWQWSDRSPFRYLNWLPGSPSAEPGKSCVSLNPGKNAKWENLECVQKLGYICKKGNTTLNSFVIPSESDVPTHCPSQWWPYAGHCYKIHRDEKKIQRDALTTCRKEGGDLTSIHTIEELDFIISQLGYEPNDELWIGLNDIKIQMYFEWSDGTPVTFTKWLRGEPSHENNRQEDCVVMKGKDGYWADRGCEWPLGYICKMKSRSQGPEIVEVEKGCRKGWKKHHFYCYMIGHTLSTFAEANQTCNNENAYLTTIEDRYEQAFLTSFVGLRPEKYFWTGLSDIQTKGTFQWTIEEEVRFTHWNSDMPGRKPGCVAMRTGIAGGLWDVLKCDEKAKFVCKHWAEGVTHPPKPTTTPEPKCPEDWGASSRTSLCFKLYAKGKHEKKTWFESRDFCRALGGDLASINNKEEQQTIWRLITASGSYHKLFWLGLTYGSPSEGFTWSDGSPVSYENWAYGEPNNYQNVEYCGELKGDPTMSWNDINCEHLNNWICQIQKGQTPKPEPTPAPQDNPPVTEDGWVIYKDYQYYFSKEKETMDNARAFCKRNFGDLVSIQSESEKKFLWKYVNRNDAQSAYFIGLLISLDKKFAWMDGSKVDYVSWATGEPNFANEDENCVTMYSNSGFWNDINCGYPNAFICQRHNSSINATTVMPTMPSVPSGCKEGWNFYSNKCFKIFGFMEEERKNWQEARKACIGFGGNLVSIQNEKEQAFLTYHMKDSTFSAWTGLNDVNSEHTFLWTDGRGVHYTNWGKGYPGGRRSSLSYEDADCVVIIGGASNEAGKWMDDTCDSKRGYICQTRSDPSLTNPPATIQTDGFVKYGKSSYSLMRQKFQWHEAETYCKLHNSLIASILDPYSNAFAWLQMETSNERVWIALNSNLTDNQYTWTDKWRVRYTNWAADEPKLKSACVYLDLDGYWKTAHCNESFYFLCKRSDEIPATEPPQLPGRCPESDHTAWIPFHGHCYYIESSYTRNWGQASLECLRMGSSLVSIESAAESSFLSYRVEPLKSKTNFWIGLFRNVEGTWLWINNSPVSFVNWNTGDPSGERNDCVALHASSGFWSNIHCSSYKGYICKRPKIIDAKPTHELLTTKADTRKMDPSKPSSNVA
The test can be described thus: Sugar competition EIA, MMR.Fc binding to GLPS-F3. The settings on record: sugar 1 mg/ml. The protocol: as §1, §2

A further test concerns the target T7, TLR4.Fc (Homo sapiens, UniProt O00206).
T7 construct: The extracellular domains of several innate immunity receptors from immune cells were cloned by reverse-transcription polymerase chain reaction (RT-PCR); made in house; host or cells: 293-F (FreeStyle 293) cells
The test can be described thus: Sugar competition EIA, TLR4.Fc binding to GLPS-F3. The settings on record: sugar 1 mg/ml. The protocol:
as §1, §2

T7 sequence (O00206 24-631 limits assumed): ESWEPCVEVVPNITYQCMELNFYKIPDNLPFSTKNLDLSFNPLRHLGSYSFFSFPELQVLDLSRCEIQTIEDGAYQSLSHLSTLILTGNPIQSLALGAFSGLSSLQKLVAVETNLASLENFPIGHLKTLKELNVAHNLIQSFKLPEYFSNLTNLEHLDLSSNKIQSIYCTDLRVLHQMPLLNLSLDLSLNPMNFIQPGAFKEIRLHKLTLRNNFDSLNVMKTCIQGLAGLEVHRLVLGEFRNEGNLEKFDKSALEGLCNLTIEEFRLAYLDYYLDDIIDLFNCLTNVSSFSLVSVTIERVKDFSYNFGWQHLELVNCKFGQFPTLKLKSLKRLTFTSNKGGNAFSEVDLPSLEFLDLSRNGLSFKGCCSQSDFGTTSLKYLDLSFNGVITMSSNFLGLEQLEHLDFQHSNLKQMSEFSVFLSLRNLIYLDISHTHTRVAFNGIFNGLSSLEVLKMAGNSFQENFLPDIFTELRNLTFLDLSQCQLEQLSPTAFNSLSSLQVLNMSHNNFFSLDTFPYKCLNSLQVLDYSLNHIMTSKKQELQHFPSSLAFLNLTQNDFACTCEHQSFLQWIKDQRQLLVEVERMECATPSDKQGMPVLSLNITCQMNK

Turning to `O=C(O)CN(CCN(CC(=O)O)CC(=O)O)CC(=O)O` [EDTA, Ethylene Diamine Tetra Acetic Acid], the “inhibition of the interaction of F3 with DC-SIGNR.Fc” value on DC-SIGNR.Fc is reported as “completely oabolished”. The “inhibition of the interaction of F3 with KCR.Fc” value at KCR.Fc is listed as “completely oabolished”. The “inhibition of the interaction of F3 with TLT2.Fc” value on TLT-2.Fc is “not”. The “inhibition of the interaction between Dectin-1.Fc and F3” value on Dectin-1.Fc was “not”.

Consider `O=C[C@H](O)[C@@H](O)[C@H](O)[C@H](O)CO` [Glc, D-glucose], for which the “inhibition of binding of Fc.DC-SIGN to GLPS-F3” value at DC-SIGN stood at 45%. Also, the “inhibition of interaction between GLPS-F3 and MMR.Fc” value on MMR.Fc amounted to 45%. The “Percentage of binding of TLR4.Fc to GLPS-F3 relative to binding in absence of sugar competitor” value at TLR4.Fc came to 101 ± 4.7%. Besides, on Dectin-1.Fc, the “inhibition of the interaction between Dectin-1.Fc and F3” value is listed as “not”.
